One assay concerns the target T1, mV1 (Mus musculus, UniProt Q704Y3).
T1 construct: expressed in transfected cells; host or cells: HEK293T
Put plainly: Inhibition of Dh of mV1 by C-terminal peptides or co-expressed C terminus, whole-cell. Format: cell-based. On the set-up: Tau values: unit not given here. Particulars: for Id/Imax / Tau values: Supplementary figure 1e. An excerpt: To generate the mC plasmid, the pEGFP-N1 vector enzyme cutting sites by HindIII and EcoRI were made by QuickCut Hind III and QuickCut EcoR I. The primer pair (5′- […]-3′ and 5′- […]-3′) for mouse TRPV1 was generated. pEGFP-N1 enzyme digestion vector and mouse TRPV1 PCR fragment were used for homologous recombination.
The pC plasmid was generated by the primer pair (5′-[…]-3′ and 5′-[…]-3′) and the homologous recombination between the pEGFP-N1 enzyme digestion vector and platypus TRPV1 PCR fragment were used.
The C-terminal peptides were synthesized[26] as the following sequences:
Random peptide: […]
(§1) All recordings were performed at room temperature.
(§2) Temperature control was achieved by perfusion of preheated or precooled solutions. Solutions were heated with an SHM-828 eight-line heater controlled by a CL-100 temperature controller (Harvard Apparatus). A custom-made manifold was attached to the output ports of the heater to deliver solutions to the recording chamber and provide heat insulation. Solutions were cooled by embedding the solution reservoirs in ice water and then perfused through a separate line. The patch pipette was placed about 1 mm from the solution output ports. A TA-29 miniature bead thermistor (Harvard Apparatus) was placed right next to the pipette, to ensure accurate monitoring of local temperature. The thermistor’s temperature readout was fed into an analog input of the patch amplifier and recorded simultaneously with current. With this method, we achieved rapid and reliable temperature changes.

Assay [1] concerns the target T2, N-terminal region of mV1 (mN region, 1M-433R) (Mus musculus, UniProt Q704Y3).
T2 construct: N-terminal region of mV1 (mN region, 1M-433R)
Put plainly: SPR, N-terminal region of mV1 immobilized. Format: binding. Particulars: 47.6 to 95.2 μM, 15 °C. Here is the method:
Note that the desensitization of mV1 occurs before cooling starts. Amplitude ratio (n = 7, two-sided t-test: *p < 0.01) between desensitized currents (Id) and maximum currents (Imax) induced by heat at 45 °C (right panel). c Superimposed representative temperature–response relationships of heat-evoked currents in HEK293T cells transiently transfected with pV1 and mV1. d Chimeric channels were generated between mV1 (gray) and pV1 (yellow) on the basis of the location of transmembrane domains. […] Channel plasmid was co-expressed with C-terminal region of pV1 (pC, 701N-851E) or mV1 (mC, 688N-839K). g Example current induced by a temperature ramp recorded from whole-cell patches with 1 mM mV1 C-terminal peptide (mC peptide) or random peptide in the pipette solution. h The mC peptide was perfused over an SPR sensor coated with the N-terminal region of mV1 (mN region, 1M-433R) at 15 or 35 °C (left and middle panels). The mC peptide in 95.2 μM was perfused over an SPR sensor coated with mN region at 15, 30, 33, and 35 °C (right panel). i Significant concentration and temperaturedependence of the interaction between N and C termini (n = 6, two-sided t-test: *p < 0.01). All statistical data are given as mean ± SEM. Source data are provided as a Source data file […]
A general note: In SPR one partner is held on a chip, and binding of the other changes the refractive index at the surface.

The test system of another assay is TRPV1. Conditions: cited from earlier work. An excerpt: To further corroborate our findings in FRET experiments of heat-desensitized channels, we took an alternative experimental strategy where we measured the changes in FRET induced by centipede toxin RhTx. […] Thus, we believe that the prolonged application of RhTx mimicked the effect ... || Based on the site-specific structural dynamics information, we computationally modeled the three-dimensional structure of mV1 in the Dh state. The blue shift in ANAP emission indicated a transition into a more hydrophobic environment at the 630 site, which provided an experimentally derived constraint for structural modeling using a recently published approach. As the heat-activated state of TRPV1 channels has not been resolved, we employed the double-knot toxin-bound state determined by cryo-EM (PDB ID: 3J5Q)[20] as the open state model, because a previous study had shown that Redhead tox ... || To model the heat-induced desensitized state of TRPV1, membrane-symmetry-loop modeling was performed using the Rosetta molecular modeling suite[41] version 2015.25. […] The selectivity filter, the pre S6 linker, and the S1–S2 linker were modeled de novo with the kinematic (KIC) loop modeling protocol[42],[43]. Ten th ... || (+ 1 further places)

Assay [2] concerns the target T3, N-terminal region of mV1 (mN region, 1M-433R) (mouse, UniProt Q704Y3 1-433).
T3 construct: mouse TRPV1 (mV1), N-terminal region, residues 1M-433R; In the functional rows the N terminus stood within the whole mV1 channel in HEK293T cells; also called N-terminal peptides; N terminus of mV1
Put plainly: SPR; mN region (1M-433R) immobilised on the sensor chip, mC peptide (30 aa) perfused at 47.6 and 95.2 uM; 35 °C ('high temperature'). Particulars: both partners purified.

Assay [3] concerns the target T3, N-terminal region of mV1 (mN region, …). Put plainly: SPR; mN region (1M-433R) immobilised on the sensor chip, mC peptide (30 aa) perfused at 47.6 and 95.2 uM; 15 °C ('low temperature'). Conditions: both partners purified.
For the next assay, the system named is mV1, pV1 and mutants. Briefly: Heat-induced desensitization (Dh): Id/Imax and tau, patch clamp. In kind it is cell-based, mouse; platypus. Particulars: Figure 2g. The method, then:
as §1, §2
(In patch-clamp work, channel activity is measured electrically.)

The mark [4] stands for this setting: Id/Imax_Average of 6 replicates, SD and SEM in columns of their own.
Setting [5] is: Tau values_Average of 6 replicates, SD and SEM in columns of their own.

Consider 9 molecules from paper PMC6513986, “Molecular basis for heat desensitization of TRPV1 ion channels” (Nature Communications, 2019).

Ends that are not written are not given here.

With “LKHYTGSLKPEDAEVFKDSMAPGEK [Pep_25, C-terminal peptide]”, the Id/Imax is given as 0.403 on mV1 (setting [4]); 0.318 on mV1 (replicate 1); 0.509 on mV1 (replicate 2); 0.427 at mV1 (replicate 3); 0.384 at mV1 (replicate 4); 0.367 at mV1 (replicate 5). For the same molecule, the Id/Imax at mV1 (replicate 6) worked out at 0.413. Moreover, the Tau values at mV1 (setting [5]) is 59.5; at mV1 (replicate 1), 43.8; at mV1 (replicate 2) it was 73; at mV1 (replicate 3) it was 60.4; on mV1 (replicate 4) it was 48.3; on mV1 (replicate 5) it was 52. Moreover, the Tau values on mV1 (replicate 6) was 79.5.
For the molecule “GSLKPEDAEVFKDSMAPGEK [Pep_20, C-terminal peptide]”, the Id/Imax on mV1 (setting [4]) is listed as 0.596; at mV1 (replicate 1), 0.486; at mV1 (replicate 2) it was 0.667; on mV1 (replicate 3), 0.715; on mV1 (replicate 4), 0.612; on mV1 (replicate 5) it was 0.567. Also, the Id/Imax at mV1 (replicate 6) stood at 0.529. Besides, the Tau values on mV1 (setting [5]) is reported as 29.8; on mV1 (replicate 1), 23.5; at mV1 (replicate 2), 38.3; on mV1 (replicate 3), 20.7; at mV1 (replicate 4), 24.4; at mV1 (replicate 5), 39.6. Further, the Tau values on mV1 (replicate 6) was 32.3.
Regarding “QVEEPTYHKLPKLSGVEADEMSDKFKEGPM [Random peptide]”, the “inhibition of Dh of mV1” value at mV1 (1 mM peptide in pipette solution, whole-cell) is reported as “failed to inhibit Dh”.
Consider “PEEVQLKHYTGSLKPEDAEVFKDSMAPGEK [mC peptide]”, for which, in assay [1], the “increase in SPR response” value came to 162%.
Consider `C=C(C)[C@]12C[C@@H](C)[C@@]34O[C@](Cc5ccccc5)(O[C@@H]1[C@@H]3C=C(COC(=O)Cc1ccc(O)c(OC)c1)C[C@]1(O)C(=O)C(C)=C[C@@H]41)O2` [RTX], for which, in the assay on TRPV1, the “activation through heat activation pathway” value is listed as “activated the channel through heat activation pathway”.

B1: DkTx: peptide toxin, double-knot toxin (peptide, UniProt P0CH43 1-79, looked up)
Tau-theraphotoxin-Hs1a: DCAKEGEVCSWGKKCCDLDNFYCPMEFIPHCKKYKPYVPVTTNCAKEGEVCGWGSKCCHGLDCPLAFIPYCEKYRGRND
On to B1, for which, in the assay on TRPV1, the “activation through heat activation pathway” value is “activated the channel through heat activation pathway” and the “mimicry of heat activation” value is reported as “mimic heat activation of TRPV1”.

B2: mV1 C-terminal peptide (Pep_30) (peptide)
peptide: PEEVQLKHYTGSLKPEDAEVFKDSMAPGEK
notes: last 30 residues of mouse TRPV1 (mV1); The text ties the SPR and the pipette experiment to 'a 30-amino-acid' C-terminal peptide; Pep_30 is the only printed peptide of that length from mV1; also called mC peptide; C-terminal peptides (a 30-amino-acid molecule); source: synthetic peptide
Regarding B2, the Kd – broadly, a measure of binding affinity in units of concentration – in assay [2] came to 3 nM; in assay [3], 140 nM.

B3: mV1 (protein, UniProt Q704Y3 1-839, looked up)
Transient receptor potential …: MEKWASLDSDESEPPAQENSCPDPPDRDPNSKPPPAKPHIFATRSRTRLFGKGDSEEASPMDCPYEEGGLASCPIITVSSVVTLQRSVDGPTCLRQTSQDSVSTGVETPPRLYDRRSIFDAVAQSNCQELESLLSFLQKSKKRLTDSEFKDPETGKTCLLKAMLNLHNGQNDTIALLLDIARKTDSLKQFVNASYTDSYYKGQTALHIAIERRNMALVTLLVENGADVQAAANGDFFKKTKGRPGFYFGELPLSLAACTNQLAIVKFLLQNSWQPADISARDSVGNTVLHALVEVADNTADNTKFVTNMYNEILILGAKLHPTLKLEELTNKKGLTPLALAASSGKIGVLAYILQREIHEPECRHLSRKFTEWAYGPVHSSLYDLSCIDTCEKNSVLEVIAYSSSETPNRHDMLLVEPLNRLLQDKWDRFVKRIFYFNFFVYCLYMIIFTTAAYYRPVEGLPPYKLNNTVGDYFRVTGEILSVSGGVYFFFRGIQYFLQRRPSLKSLFVDSYSEILFFVQSLFMLVSVVLYFSHRKEYVASMVFSLAMGWTNMLYYTRGFQQMGIYAVMIEKMILRDLCRFMFVYLVFLFGFSTAVVTLIEDGKNNSLPVESPPHKCRGSACRPGNSYNSLYSTCLELFKFTIGMGDLEFTENYDFKAVFIILLLAYVILTYILLLNMLIALMGETVNKIAQESKNIWKLQRAITILDTEKSFLKCMRKAFRSGKLLQVGFTPDGKDDFRWCFRVDEVNWTTWNTNVGIINEDPGNCEGVKRTLSFSLRSGRVSGRNWKNFALVPLLRDASTRDRHSTQPEEVQLKHYTGSLKPEDAEVFKDSMAPGEK
With B3, the Id/Imax_Average in the assay on mV1, pV1 and mutants (mean of replicates) came out at 0.993. Besides, the Id/Imax with mV1, pV1 and mutants (replicate 1) is 0.9971; with mV1, pV1 and mutants (replicate 2), 0.9951; in the assay with mV1, pV1 and mutants (replicate 3), 0.999; in the assay on mV1, pV1 and mutants (replicate 4), 0.9588; in the assay on mV1, pV1 and mutants (replicate 5) it was 0.9972; in the assay with mV1, pV1 and mutants (replicate 6) it was 0.9943. Also, the Id/Imax with mV1, pV1 and mutants (replicate 7) is reported as 0.9968; in the assay on mV1, pV1 and mutants (replicate 8), 0.9956; in the assay on mV1, pV1 and mutants (replicate 9), 0.9982; in the assay with mV1, pV1 and mutants (replicate 10), 0.9979.

B4: C terminus of mV1: C-terminal region of mV1 (mC, 688N-839K), co-expressed plasmid (protein)
chain: NKIAQESKNIWKLQRAITILDTEKSFLKCMRKAFRSGKLLQVGFTPDGKDDFRWCFRVDEVNWTTWNTNVGIINEDPGNCEGVKRTLSFSLRSGRVSGRNWKNFALVPLLRDASTRDRHSTQPEEVQLKHYTGSLKPEDAEVFKDSMAPGEK
modifications: left off: eGFP (from the vector pEGFP-N1), end not stated, state not stated
notes: C-terminal region of mV1 (mC, 688N-839K), co-expressed plasmid
Take B4: in the assay with mV1 (co-expression with C-terminal region), the “inhibition of Dh of mV1” value is recorded as “largely inhibited”.
